pIC50: −log10 of the molar value. Active and inactive are the calls of the source. The calls are words filed in the database; no cut-off is given here.
Key:
[1] = test system: RAW264.7; test: Anti-inflammatory activity against LPS-induced mouse RAW264.7 cells assessed as inhibition of TNF-alpha production at 100 uM by ELISA; type: functional
[2] = test system: Bacillus subtilis; test: Antibacterial activity against Bacillus subtilis assessed as inhibition of bacterial growth at 100 uM; type: functional, organism-based
[3] = test system: Escherichia coli; test: Antibacterial activity against Escherichia coli assessed as inhibition of bacterial growth at 100 uM; type: functional, organism-based
[4] = test system: RAW264.7; test: Anti-inflammatory activity against LPS-induced mouse RAW264.7 cells assessed as inhibition of IL-1 beta production at 100 uM by ELISA; type: functional
[5] = test system: Pseudomonas aeruginosa; test: Antibacterial activity against Pseudomonas aeruginosa assessed as inhibition of bacterial growth at 100 uM; type: functional, organism-based
[6] = Stability of the compound in dichloromethane measured after 2 months; type: physicochemical; settings: 1460 h
[7] = test system: Staphylococcus aureus; test: Antibacterial activity against Staphylococcus aureus assessed as inhibition of bacterial growth at 100 uM; type: functional, organism-based
[8] = test system: RAW264.7; test: Cytotoxicity against mouse RAW264.7 cells assessed as effect on cell viability at 100 uM; type: toxicity, cell-based; settings: raw264.7, 100 µM
[9] = test system: RAW264.7; test: Anti-inflammatory activity against LPS-induced mouse RAW264.7 cells assessed as inhibition of NO production; type: functional, cell-based
[10] = test system: RAW264.7; test: Anti-inflammatory activity against LPS-induced mouse RAW264.7 cells assessed as inhibition of NO production at 100 uM; type: functional, cell-based
[11] = test system: RAW264.7; test: Pro-inflamamtory activity in LPS-induced mouse RAW264.7 cells assessed as increase in NO production at 100 uM; type: functional, cell-based

Structure (SMILES) | inhibition at 100 µM [1] | Activity [2] | Activity [3] | inhibition at 100 µM [4] | Activity [5] | Stability [6] | Activity [7] | Activity [8] | Activity [9] | pIC50 [9] | Activity [10] | Activity [11]
C/C=C1/C2=CCCN3C(=O)O[C@H]([C@H]1OC(=O)CCCC)[C@H]23 | ≤ 60% | inactive | inactive | > 90% | inactive | Stable | inactive | Non-toxic | Dose-dependent-effect | 5.06 | Active | 
C/C=C1/C2=CCCN3C(=O)O[C@H]([C@H]1OS(C)(=O)=O)[C@H]23 |  | inactive | inactive |  | inactive |  | inactive |  |  |  | Active | 
C/C=C1/C2=CCCN3C(=O)O[C@H]([C@H]1OC(=O)CCC)[C@H]23 |  | inactive | inactive |  | inactive |  | inactive |  |  |  | inactive | 
C/C=C1/C2=CCCN3C(=O)O[C@H]([C@H]1OC(=O)CC)[C@H]23 |  | inactive | inactive |  | inactive |  | inactive |  |  |  | inactive | 
C/C=C1/C2=CCCN3C(=O)O[C@H]([C@@H]1Cl)[C@H]23 |  | inactive | inactive |  | inactive |  | inactive |  |  |  |  | 
C/C=C1/C2=CCCN3C(=O)O[C@H]([C@H]1OC(=O)c1ccccc1)[C@H]23 |  | inactive | inactive |  | inactive |  | inactive |  |  |  | Active | 
C/C=C1/C2=CCCN3C(=O)O[C@H]([C@H]1OS(=O)(=O)CCC)[C@H]23 |  | inactive | inactive |  | inactive |  | inactive |  |  |  | Active | 
C/C=C1/C2=CCCN3C(=O)O[C@H]([C@H]1OC(=O)CCCCCCCCCCC)[C@H]23 |  | inactive | inactive |  | inactive |  | inactive |  |  |  | inactive | 
C/C=C1/C2=CCCN3C(=O)O[C@H]([C@H]1OC(=O)C1CCCCC1)[C@H]23 |  | inactive | inactive |  | inactive |  | inactive |  |  |  | Active | 
C/C=C1/C2=CCCN3C(=O)O[C@H]([C@H]1O)[C@H]23 |  | inactive | inactive |  | inactive |  | inactive |  |  |  |  | Active
C/C=C1/C2=CCCN3C(=O)O[C@H]([C@H]1OC(=O)C(C)(C)C)[C@H]23 |  | inactive | inactive |  | inactive |  | inactive |  |  |  | Active | 
C/C=C1/C2=CCCN3C(=O)O[C@H]([C@H]1OC(C)=O)[C@H]23 |  | inactive | inactive |  | inactive |  | inactive |  |  |  | inactive | 
C/C=C1/C2=CCCN3C(=O)O[C@H]([C@H]1OC(=O)C(C)C)[C@H]23 |  | inactive | inactive |  | inactive |  | inactive |  |  |  | inactive | 
C/C=C1/C2=CCCN3C(=O)O[C@H]([C@H]1OC(=O)c1ccc(C)cc1)[C@H]23 |  | inactive | inactive |  | inactive |  | inactive |  |  |  | Active | 
C/C=C1/C2=CCCN3C(=O)O[C@H]([C@H]1OC(=O)/C=C/c1ccccc1)[C@H]23 |  | inactive | inactive |  | inactive |  | inactive |  |  |  | Active | 
C/C=C1/C2=CCCN3C(=O)O[C@H]([C@H]1OC(=O)CCCCCCCCC)[C@H]23 |  | inactive | inactive |  | inactive |  | inactive |  |  |  | inactive | Active

— ChEMBL document CHEMBL6177946, “Design, synthesis and biological evaluation of Streptazolin analogs as anti-inflammatory agents” (Bioorg Med Chem Lett, 2025)
